In patent publication US9901618B2, “Cell-permeable peptide system for treating diseases caused by glutamate excitotoxicity” (priority 2014, dated 2018):
“Also recorded” adds a separate entry of the source.

Experiments:
[1] = system: presynaptic release of glutamate; test: Glutamate ([3H]D-Asp) release from superfused cortical synaptosomes; assay type: cell-based, mouse; conditions: for exocytotic release of [3H] D-Asp vs. control: C57/BL6 cortical synaptosomes, 8 mM KCl 90 s, 100 μM NMDA 10 min Mg2+-free, 50 μM (S)-AMPA 10 min
JNK = test: Western blot of JNK phosphorylation in cortical synaptosomes; conditions: for phosphorylation of JNK (p-JNK/JNK) vs. control=100%: wild-type synaptosomes, stimulus alone (100 μM NMDA 10 min Mg2+-free; AMPA 10 min; KCl 90 s)
[2] = system: presynaptic NMDA receptors; test: mEPSC patch-clamp recording in cortex slices (NMDA-dependent presynaptic glutamate release); assay type: cell-based, mouse; conditions: for effect on D-AP5 block of NMDA presynaptic receptor (mEPSC inter-events): peptide added separately at 10 μM, 30 min before recording
Syntaxin 1a = test: Western blot of STX1a (S14) phosphorylation in synaptosomes; assay type: cell-based, mouse
[3] = system: presynaptic NMDA receptors; test: Paired-pulse ratio of evoked EPSCs, patch-clamp in entorhinal cortex slices; assay type: cell-based, mouse; conditions: D-AP5 50 μM perfusion, C57BL6/J slices
Procedure: The presynaptic NMDA receptors on the glutamatergic terminals are activated by the spontaneously-released glutamate and, by means of a positive feedback mechanism, determine a tonic liberation of glutamate. Electrophysiological recordings were made in order to investigate the functional role of JNK in the release of glutamate. For this reason, a parameter termed paired-pulse facilitation (PPF) was measured from pyramidal neurons of cerebral slices of entorhinal cortex (EC)-obtained from adult mice C57BL6/J incubated with or without the inhibitor of JNK, L-JNKi1 (2 μM for 30 min). Such paired-pulse facilitation (PPF) is a paradigm studied by means of the electrophysiological recording technique in patch-clamp configuration.

[4] = synaptosomes treated with D-AP5

Compound: [Cl-].[K+] [KCl]
- exocytotic release of [3H] D-Asp vs. control [1]: 158±37%
- phosphorylation of JNK (p-JNK/JNK) vs. control=100% (JNK): unable to increase the phosphorylation of JNK

Compound: Cc1onc(O)c1C[C@H](N)C(=O)O [(S)-AMPA]
- exocytotic release of [3H] D-Asp vs. control [1]: 98±11%
- phosphorylation of JNK (p-JNK/JNK) vs. control=100% (JNK): unable to increase the phosphorylation of JNK

Compound: GRKKRRQRRRPPIEQSIEQEEGLNRS (SEQ ID NO: 5) (Muridae) [JGRi1]
- effect on D-AP5 block of NMDA presynaptic receptor (mEPSC inter-events) [2]: reduced the functionality of the inhibitor D-AP5

Compound: CN[C@H](CC(=O)O)C(=O)O [NMDA, N-Methyl D-Aspartate]
- exocytotic release of [3H] D-Asp vs. control [1]: 202±21%
- NMDA-induced release of [3H] D-Asp with respect to the overflow basal ([1]; JNK2-KO mouse synaptosomes, NMDA 10 min): 28±19%
- phosphorylation of STX1a (S14) after NMDA alone (Syntaxin 1a; NMDA 10 min): slight but non-significant decrease
- NMDA-induced phosphorylation of JNK (JNK; JNK2-KO mouse synaptosomes): totally eliminated
- NMDA-induced increase of pJNK vs. control=100% (JNK; JNK3-KO mouse synaptosomes): +76±10%

Compound: NC(CCCP(=O)(O)O)C(=O)O [D-AP5]
- paired-pulse ratio (PPR) at 50 ms interval [3]: irreversibly reduced
- mEPSC amplitude [2]: neither the cumulative amplitude nor the mean of the same events were affected; also recorded: never affected
- mEPSC inter-event intervals [2]: increase of the cumulative distribution of the inter-event intervals
- mEPSC inter-event intervals and amplitude [2]: no significant changes
- mEPSC inter-event intervals (IEI) ([2]; D-AP5, C57BL6/J slices, tetrodotoxin, picrotoxin, MK-801 in pipette): reversible increase
- change in pSTX1a vs. Ctrl (100%) with D-AP5 (Syntaxin 1a; [4]): −10±7.2%
- change in pJNK vs. Ctrl (100%) with D-AP5 (JNK; [4]): +10±8.9%

Compound: GRKKRRQRRRPPMSEYNATQSDYRER (SEQ ID NO: 8) (Muridae) [JGRi2]
- effect on D-AP5 block of NMDA presynaptic receptor (mEPSC inter-events) [2]: reduced the functionality of the inhibitor D-AP5
